In ChEMBL document CHEMBL5143672, “New diarylpentanoids and chalcones as potential antimicrobial adjuvants” (2022):
Converted amounts (≈) assume the structure as drawn.

Experiments:
Candida albicans [1] = test: Antifungal activity against Candida albicans ATCC 10231 assessed as inhibition of fungal growth incubated for 18 hrs by optical density based analysis; assay type: functional
Escherichia coli [2] = test: Antibacterial activity against Escherichia coli ATCC 25922 assessed as inhibition zone incubated for 24 hrs by disc diffusion method; assay type: functional
[3] = test system: Staphylococcus epidermidis; test: Antibacterial activity against Staphylococcus epidermidis ATCC 12228 assessed as inhibition zone incubated for 24 hrs by disc diffusion method; assay type: functional
Staphylococcus aureus [4] = test: Antibacterial activity against Staphylococcus aureus ATCC 25923 assessed as inhibition zone incubated for 24 hrs by disc diffusion method; assay type: functional
Klebsiella pneumoniae = test: Antibacterial activity against Klebsiella pneumoniae ATCC 13883 assessed as inhibition zone incubated for 24 hrs by disc diffusion method; assay type: functional
Pseudomonas aeruginosa [5] = test: Antibacterial activity against Pseudomonas aeruginosa ATCC 27853 assessed as inhibition zone incubated for 24 hrs by disc diffusion method; assay type: functional
Micrococcus luteus = test: Antibacterial activity against Micrococcus luteus 28001 assessed as inhibition zone incubated for 24 hrs by agar plate method; assay type: functional
Enterobacter cloacae = test: Antibacterial activity against Enterobacter cloacae 45301 assessed as inhibition zone incubated for 24 hrs by agar plate method; assay type: functional
Trichophyton rubrum = test: Antifungal activity against Trichophyton rubrum FF5 assessed as inhibition of fungal growth by broth microdilution method; assay type: functional
Escherichia coli [6] = test: Antimicrobial adjuvant activity against ESBL-producing Escherichia coli SA/2 assessed as potentiation of cefotaxime-induced antibacterial activity by measuring fold reduction in cefotaxime MIC at 64 ug/ml by broth microdilution method; assay type: functional; conditions: dose 64 µg/ml
Escherichia coli [7] = test: Antibacterial activity against Escherichia coli ATCC 25922 assessed as inhibition of bacterial growth by broth microdilution method; assay type: functional
Staphylococcus aureus [8] = test: Inhibition of biofilm formation in Staphylococcus aureus 272123 at 100 uM incubated for 48 hrs by crystal violet staining based analysis; assay type: functional
Aspergillus fumigatus = test: Antifungal activity against Aspergillus fumigatus ATCC 204305 assessed as inhibition of fungal growth by broth microdilution method; assay type: functional
[9] = Inhibition of quorum sensing system in Chromobacterium violaceum CV026 assessed as reduction in pigment production co-cultured with Sphingomonas paucimobilis Ezf 10-17 for 24 to 48 hrs; conditions: time 24-48 hrs
[10] = test system: Salmonella enterica subsp. enterica serovar Typhimurium; test: Inhibition of Multidrug resistance efflux pump in Salmonella enterica serovar typhimurium SL1344 (SE03) assessed as relative fluorescence index using ethidium bromide as substrate at 50 uM by fluorescence based analysis
Serratia marcescens = test: Inhibition of quorum sensing system in Serratia marcescens AS-1 assessed as reduction in pigment production incubated for 24 to 48 hrs; conditions: time 24-48 hrs
Enterococcus faecalis [11] = test: Antimicrobial adjuvant activity against Enterococcus faecalis B3/101 assessed as potentiation of vancomycin-induced antibacterial activity by measuring fold reduction in vancomycin MIC at 64 ug/ml by broth microdilution method; assay type: functional; conditions: dose 64 µg/ml
Staphylococcus aureus [12] = test: Antibacterial activity against methicillin and ofloxacin-resistant Staphylococcus aureus 272123 assessed as inhibition of bacterial growth by broth microdilution method; assay type: functional
Staphylococcus aureus [13] = test: Antibacterial activity against Staphylococcus aureus ATCC 25923 assessed as inhibition of bacterial growth by broth microdilution method; assay type: functional
[14] = Inhibition of Multidrug resistance efflux pump in Staphylococcus aureus 272123 assessed as relative fluorescence index using ethidium bromide as substrate at 50 uM by fluorescence based analysis
Salmonella typhimurium = test: Antibacterial activity against Salmonella enterica serovar typhimurium SL1344 (SE03) assessed as inhibition of bacterial growth by broth microdilution method; assay type: functional, Salmonella enterica subsp. enterica serovar Typhimurium
Enterococcus faecalis [15] = test: Antibacterial activity against Enterococcus faecalis ATCC 29212 assessed as inhibition of bacterial growth by broth microdilution method; assay type: functional
[16] = Inhibition of quorum sensing system in Chromobacterium violaceum wild type 85 assessed as reduction in pigment production incubated for 24 to 48 hrs; conditions: time 24-48 hrs
Pseudomonas aeruginosa [17] = test: Antibacterial activity against Pseudomonas aeruginosa ATCC 27853 assessed as inhibition of bacterial growth by broth microdilution method; assay type: functional
Staphylococcus aureus [18] = test: Inhibition of biofilm formation in Staphylococcus aureus ATCC 25923 at 100 uM incubated for 48 hrs by crystal violet staining based analysis; assay type: functional
Candida albicans [19] = test: Antifungal activity against Candidia albicans ATCC 10231 assessed as inhibition of fungal growth by broth microdilution method; assay type: functional
[20] = Inhibition of Multidrug resistance efflux pump in Staphylococcus aureus 272123 assessed as relative fluorescence index using ethidium bromide as substrate at 25 uM by fluorescence based analysis
[21] = test system: Salmonella enterica subsp. enterica serovar Typhimurium; test: Inhibition of Multidrug resistance efflux pump in Salmonella enterica serovar typhimurium SL1344 (SE03) assessed as relative fluorescence index using ethidium bromide as substrate at 25 uM by fluorescence based analysis

| SMILES | MIC (Trichophyton rubrum) | MIC (Escherichia coli [7]) | inhibition at 100 µM (Staphylococcus aureus [8]) | MIC (Aspergillus fumigatus) | Activity [9] | RFU [10] | Activity (Serratia marcescens) | fold change (FC) (Enterococcus faecalis [11]) | MIC (Staphylococcus aureus [12]) | MIC (Staphylococcus aureus [13]) | RFU [14] | MIC (Salmonella typhimurium) | MIC (Enterococcus faecalis [15]) | Activity [16] | MIC (Pseudomonas aeruginosa [17]) | inhibition at 100 µM (Staphylococcus aureus [18]) | MIC (Candida albicans [19]) | also measured |
| --- | --- | --- | --- | --- | --- | --- | --- | --- | --- | --- | --- | --- | --- | --- | --- | --- | --- | --- |
| COc1cc(OC)c2c(c1)OC/C(=C\c1ccccc1)C2=O |  |  |  |  |  |  |  |  |  |  |  |  |  |  |  |  |  | MIC (Candida albicans [1]): 25 µM (≈ 7.41 µg/mL) |
| COc1cccc(/C=C2\CCc3ccccc3C2=O)c1 |  |  |  |  |  |  |  |  |  |  |  |  |  |  |  |  |  | inhibition zone (IZ) (Escherichia coli [2]): 17 mm; inhibition zone (IZ) [3]: 15 mm; inhibition zone (IZ) (Staphylococcus aureus [4]): 18 mm; inhibition zone (IZ) (Klebsiella pneumoniae): 18 mm; inhibition zone (IZ) (Pseudomonas aeruginosa [5]): 18 mm |
| COc1cc(/C=C2\CCC/C(=C\c3cc(OC)c(OC)c(OC)c3)C2=O)cc(OC)c1OC |  |  |  |  |  |  |  |  |  |  |  |  |  |  |  |  |  | inhibition zone (IZ) (Micrococcus luteus): 9 mm; inhibition zone (IZ) (Enterobacter cloacae): 10 mm |
| COc1ccccc1/C=C1\CCc2ccccc2C1=O | > 128 µg/mL | > 64 µg/mL | 83.3% | > 128 µg/mL | 48 mm | 1.32 | 0 mm | 2 | > 64 µg/mL | > 64 µg/mL | 0.88 | > 64 µg/mL | > 64 µg/mL | 0 mm | > 64 µg/mL | 0% | > 128 µg/mL | fold change (FC) (Escherichia coli [6]): 2 |
| COc1cccc(/C=C2\COC/C(=C\c3cccc(OC)c3OC)C2=O)c1OC | > 128 µg/mL | > 64 µg/mL | 46.9% | > 128 µg/mL | 31 mm | 0.12 | 0 mm | 32 | > 64 µg/mL | > 64 µg/mL | 0.44 | > 64 µg/mL | > 64 µg/mL | 0 mm | > 64 µg/mL | 0% | > 128 µg/mL | fold change (FC) (Escherichia coli [6]): 16 |
| COC(=O)[C@H]1[C@H]2C[C@@H]3c4[nH]c5cc(OC)ccc5c4CCN3C[C@H]2C[C@@H](OC(=O)c2cc(OC)c(OC)c(OC)c2)[C@@H]1OC [RESERPINE] |  |  | 72.1% |  |  |  |  |  |  |  |  |  |  |  |  | 22.3% |  | RFU [20]: 0.35 |
| COc1cc(OC)c(OC)cc1/C=C1\CSc2ccccc2C1=O | > 128 µg/mL | > 64 µg/mL | 74.1% | > 128 µg/mL | 0 mm | -0.02 | 0 mm | 2 | > 64 µg/mL | > 64 µg/mL | 0.36 | > 64 µg/mL | > 64 µg/mL | 0 mm | > 64 µg/mL | 0% | > 128 µg/mL |  |
| O=C1/C(=C/c2ccccc2Br)CC/C1=C\c1ccccc1Br |  |  |  |  |  |  |  |  |  |  |  |  |  |  |  |  |  | inhibition zone (IZ) (Enterobacter cloacae): 10 mm |
| N#CC(C#N)=NNc1cccc(Cl)c1 |  |  |  |  |  |  |  |  |  |  |  |  |  |  |  |  |  | RFU [21]: 0.3 |
